Source: patent US20230114207A1, “THE COMBINATION OF CYCLIN DEPENDENT KINASE 7 INHIBITOR AND IMMUNOTHERAPY FOR TREATMENT OF CANCER” (Dana-Farber Cancer Institute, Inc., priority 2019, published 2023)

System: INSM1, ASCL1, NFIB and MYC in DMS79 and GLC16
Experiment: RT-qPCR of super enhancer (SE)-associated genes
Format: cell-based, human
Details: 24 hr
Description: Cell pellets were collected and then subjected to total RNA extraction using RNeasy Plus Mini Kit (QIAGEN, Cat #74136) according to the manufacturer's instructions, or using TRIzol:Chloroform phase-separation by centrifugation followed by RNA precipitation using isopropanol. The extracted RNA was reversely transcribed into cDNA using the High-Capacity RNA-to-cDNA™ Kit (Thermo Fisher Scientific, Cat #4387406) according to the manufacturer's instructions. The obtained cDNA samples were diluted and used for RT-qPCR. PowerUp™ SYBR™ Green Master Mix (Thermo Fisher Scientific, Cat #A25742) or TaqMan Gene Expression Master Mix (Life Technologies, Cat #4369514). Gene specific primers with sequences listed in Table 3 were used for PCR amplification and detection on the StepOnePlus™ Real-Time PCR System (Thermo Fisher Scientific). RT-qPCR data were normalized to Actb (mouse cells) or GUSB (human cells) and presented as fold changes of gene expression in the test sample compared to the control.

In the case of `CN(C)C/C=C/C(=O)Nc1ccc(C(=O)Nc2cccc(Nc3ncc(Cl)c(-c4c[nH]c5ccccc45)n3)c2)cc1` [THZ1, reference compound], the “expression of super enhancer (SE)-associated genes including INSM1, ASCL1, NFIB and MYC” value is reported as “significant reduction”.
